{"source": "patent US20080039320A1", "about": "(priority 2004, published 2008)", "key": {"Puccinia recondita [1]": {"test_system": "Puccinia recondita", "experiment": "6 day protective activity against brown rust of wheat, foliar spray (Use Example 4)", "format": "in vivo", "conditions": "wheat seedlings", "protocol": "(§1) The active compounds were prepared separately as a stock solution with 0.25% by weight of active compound in acetone or DMSO. 1% by weight of the emulsifier Uniperol® EL (wetting agent having emulsifying and dispersing action based on ethoxylated alkylphenols) was added to this solution, and the mixture was diluted with water to the desired concentration.\n(§2) The visually determined percentages of infected leaf areas were converted into efficacies in % of the untreated control:\n(§3) The efficacy (E) is calculated as follows using Abbot's formula: E=(1−α/β)·100 α corresponds to the fungicidal infection of the treated plants in % and β corresponds to the fungicidal infection of the untreated (control) plants in % An efficacy of 0 means that the infection level of the treated plants corresponds to that of the untreated control plants; an efficacy of 100 means that the treated plants were not infected.\n(§4) The expected efficacies of active compound combinations were determined using Colby's formula (Colby, S. R. “Calculating synergistic and antagonistic responses of herbicide combinations”, Weeds, 15, 20-22, 1967) and compared with the observed efficacies.\n(§5) Colby's formula: E=x+y−x·y/100\n6 Day Protective Activity Against Puccinia recondita on Wheat (Brown Rust of Wheat) Leaves of potted wheat seedlings of the cultivar “Kanzler” were sprayed to runoff point with an aqueous suspension having the concentration of active compound stated below. After six days, the treated plants were inoculated with a spore suspension of brown rust of wheat (Puccinia recondite). The plants were then placed in a chamber of high atmospheric humidity (90 to 95%) at 20 to 22° C. for 24 hours. During this time, the spores germinated and the germ tubes penetrated into the leaf tissue. The next day, the test plants were returned to the greenhouse and cultivated at temperatures between 20 and 22° C. and at 65 to 70% relative atmospheric humidity for a further 7 days. The extent of the rust fungus development on the leaves was then determined visually."}, "Puccinia recondita [2]": {"test_system": "Puccinia recondita", "experiment": "Protective activity against brown rust of wheat, menadione watered in, partner sprayed 6 days later (Use Example 2)", "format": "in vivo", "conditions": "wheat seedlings", "protocol": "as §1, §2, §3, §4\nColby's formula: E=x+y−x·y/100 […]"}, "Phytophthora infestans": {"test_system": "Phytophthora infestans", "format": "in vivo", "conditions": "tomato plants"}, "Pyrenophora teres": {"test_system": "Pyrenophora teres", "experiment": "Activity against net blotch of barley, 6 day protective application (Use Example 3)", "format": "in vivo, Pyrenophora [syn. Drechslera] teres", "conditions": "barley seedlings", "protocol": "as §1, §2, §3, §4, §5\nActivity Against Net Blotch of Barley Caused by Pyrenophora teres, 6 Day Protective Application Leaves of potted barley seedlings were sprayed to runoff point with an aqueous suspension having the concentration of active compound stated below. After 6 days, the test plants were inoculated with an aqueous spore suspension of Pyrenophora [syn. Drechslera] teres, the net blotch pathogen. The test plants were then placed in a greenhouse at temperatures between 20 and 24° C. and 95 to 100% relative atmospheric humidity. After 6 days, the extent of the development of the disease was determined visually in % infection of the total leaf area."}, "Pyricularia oryzae": {"test_system": "Pyricularia oryzae", "format": "in vivo", "conditions": "rice seedlings"}, "phytopathogenic fungi": {"test_system": "phytopathogenic fungi", "experiment": "Fungicidal tests, overall statements", "format": "in vivo", "conditions": "menadione on its own", "protocol": "as §1, §2\nThe efficacy (E) is calculated as follows using Abbot's formula: E=(1−α/β)·100\nas §4, §5"}, "[3]": {"test_system": "Erysiphe [syn. Blumeria] graminis forma specialis. tritici", "experiment": "Activity against mildew of wheat, 6 day protective application (Use Example 6)", "format": "in vivo", "conditions": "wheat seedlings", "protocol": "as §1, §2, §3, §4, §5\nActivity Against Mildew of Wheat Caused by Erysiphe [syn. Blumeria] graminis Forma Specialis. Tritici, 6 Day Protective Application Leaves of potted wheat seedlings of the cultivar “Kanzler” were sprayed to runoff point with an aqueous suspension having the concentration of active compound stated below. The suspension or emulsion had been prepared as described above. 6 days after the application of the active compound, the plants were dusted with spores of mildew of wheat (Erysiphe [syn. Blumeria] graminis forma specialis. tritici). The test plants were then placed in a greenhouse at temperatures between 20 and 24° C. and at 60 to 90% relative atmospheric humidity. After 7 days, the extent of the mildew development was determined visually in % infection of the total leaf area."}}, "note": "Like-named read-outs stand apart in the source and are kept apart here.", "data": [{"compound": "Fc1ccc([C@]2(Cn3cncn3)O[C@H]2c2ccccc2Cl)cc1", "note": "(racemic) [epoxiconazole, (2RS,3SR)-1-[3-(2-chlorophenyl)-2,3-epoxy-2-(4-fluorophenyl)propyl]-1H-1,2,4-triazole]", "values": [{"measurement": "Observed effect (%)", "setting": "Puccinia recondita [1]; 1 ppm", "result": 22, "unit": "%"}]}, {"compound": "O=C(Nc1ccccc1-c1ccc(Cl)cc1)c1cccnc1Cl", "note": "[boscalid, 2-chloro-N-(4′-chlorobiphenyl-2-yl)nicotinamide]", "values": [{"measurement": "Observed effect (%)", "setting": "Puccinia recondita [1]; 63 ppm", "result": 22, "unit": "%"}]}, {"compound": "CC1CCN(c2c(-c3c(F)cc(F)cc3F)c(Cl)nc3ncnn23)CC1", "note": "[compound A, 5-Chloro-7-(4-methylpiperidin-1-yl)-6-(2,4,6-trifluorophenyl)-[1,2,4]triazolo[1,5-a]pyrimidine]", "values": [{"measurement": "Observed effect (%)", "setting": "Puccinia recondita [2]; 4 ppm, sprayed to runoff", "result": 25, "unit": "%"}, {"measurement": "Observed effect (%)", "setting": "Puccinia recondita [1]; 63 ppm", "result": 22, "unit": "%"}]}, {"compound": "COc1ccc(C(=CC(=O)N2CCOCC2)c2ccc(Cl)cc2)cc1OC", "note": "[dimethomorph, 3-(4-chlorophenyl)-3-(3,4-dimethoxyphenyl)-1-morpholin-4-ylpropenone]", "values": [{"measurement": "Observed effect (%)", "setting": "Phytophthora infestans; 16 ppm", "result": 37, "unit": "%"}]}, {"compound": "CC(C)NC(=O)N1CC(=O)N(c2cc(Cl)cc(Cl)c2)C1=O", "note": "[iprodione, N-isopropyl-3-(3,5-dichlorophenyl)-2,4-dioxoimidazolidine-1-carboxamide]", "values": [{"measurement": "Observed effect (%)", "setting": "Pyrenophora teres; 250 ppm", "result": 22, "unit": "%"}]}, {"compound": "CC1=CC(=O)c2ccccc2C1=O", "note": "[menadione, 2-methyl-1,4-naphthoquinone]", "values": [{"measurement": "Observed effect (%)", "setting": "Pyricularia oryzae; 250 ppm, efficacy in % of untreated control (Abbot)", "result": 0, "unit": "%"}, {"measurement": "Observed effect (%)", "setting": "Phytophthora infestans; 63 ppm", "result": 27, "unit": "%"}, {"measurement": "Observed effect (%)", "setting": "Puccinia recondita [2]; 3.6%, watered with 2 ml aqueous suspension comprising 71 mg", "result": 0, "unit": "%"}, {"measurement": "fungicidal action against phytopathogenic fungi", "setting": "phytopathogenic fungi", "result": "no fungicidal action"}, {"measurement": "Observed effect (%)", "setting": "[3]; 16 ppm", "result": 0, "unit": "%"}, {"measurement": "Observed effect (%)", "setting": "Puccinia recondita [1]; 1 ppm", "result": 0, "unit": "%"}, {"measurement": "Observed effect (%)", "setting": "Puccinia recondita [1]; 16 ppm", "result": 25, "unit": "%"}, {"measurement": "Observed effect (%)", "setting": "Pyrenophora teres; 16 ppm", "result": 0, "unit": "%"}, {"measurement": "Observed effect (%)", "setting": "Pyrenophora teres; 63 ppm", "result": 0, "unit": "%"}]}, {"compound": "COc1cc(C)c(C(=O)c2c(OC)ccc(Br)c2C)c(OC)c1OC", "note": "[metrafenone, 3′-bromo-2,3,4,6′-tetramethoxy-2′,6-dimethylbenzophenone]", "values": [{"measurement": "Observed effect (%)", "setting": "[3]; 63 ppm", "result": 67, "unit": "%"}]}, {"compound": "COC(=O)N(OC)c1ccccc1COc1ccn(-c2ccc(Cl)cc2)n1", "note": "[pyraclostrobin, methyl N-{2-[1-(4-chlorophenyl)-1H-pyrazol-3-yloxymethyl]phenyl}(N-methoxy)carbamate]", "values": [{"measurement": "Observed effect (%)", "setting": "Pyricularia oryzae; 1 ppm, applied 1 day before inoculation", "result": 20, "unit": "%"}]}, {"compound": "zinc ammoniate ethylenebis(dithiocarbamate) [metiram]", "values": [{"measurement": "Observed effect (%)", "setting": "[3]; 63 ppm", "result": 0, "unit": "%"}]}]}
